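Assay format: 96-well plates, 48-hour exposure. The concentration for 50% growth inhibition is given as GI50.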 The source made the active and inactive calls. Rule as the data show it: active = GI50 up to about 1.1 µM and inactive = higher.
Columns and labels:
Assay in all cases: NCI anticancer screen, dose series, 48 h
TK-10 = test system: TK-10
SF-539 = test system: SF-539
Hs-578T = test system: Hs-578T
A498 = test system: A498
DU-145 = test system: DU-145
786-0 = test system: 786-0
A549 = test system: A549
SF-268 = test system: SF-268
OVCAR-4 = test system: OVCAR-4
CAKI-1 = test system: CAKI-1
OVCAR-5 = test system: OVCAR-5
SK-MEL-5 = test system: SK-MEL-5
BT-549 = test system: BT-549
SK-OV-3 = test system: SK-OV-3
SR = test system: SR
SK-MEL-2 = test system: SK-MEL-2
NCI-H23 = test system: NCI-H23
MOLT-4 = test system: MOLT-4
HL-60 = test system: HL-60
Malme-3M = test system: Malme-3M

Measured: GI50

C(=C/c1ccc2nc(-c3ccc(/C=C/C=N/NC4=NCCCN4)cc3)cn2c1)/C=N/NC1=NCCCN1
inactive: TK-10 19.5 µM | SF-539 25.5 µM | Hs-578T 15.8 µM | A498 > 100 µM | DU-145 17.5 µM | 786-0 42.9 µM | A549 10.3 µM | SF-268 12.2 µM | OVCAR-4 > 100 µM | CAKI-1 12.1 µM | OVCAR-5 49.9 µM | SK-MEL-5 > 100 µM | BT-549 > 100 µM | SK-OV-3 > 100 µM | SR 31.2 µM | SK-MEL-2 > 100 µM | NCI-H23 > 100 µM | MOLT-4 42.2 µM

O=C1CSC2=NC3=C(COC/C3=C\c3ccc(F)cc3)C(c3ccc(F)cc3)N12 (stereo not given)
inactive: TK-10 99.5 µM | SF-539 > 100 µM | HL-60 12.6 µM | Hs-578T > 100 µM | A498 > 100 µM | DU-145 35.2 µM | 786-0 59.4 µM | SF-268 > 100 µM | OVCAR-4 50.9 µM | CAKI-1 > 100 µM | OVCAR-5 > 100 µM | SK-MEL-5 71.4 µM | BT-549 > 100 µM | SK-OV-3 > 100 µM | SR 20.7 µM | SK-MEL-2 99.5 µM | NCI-H23 73.1 µM | MOLT-4 20.6 µM

CN(C)CCNC(=O)c1cccc2c(NC(CCCNC(=N)N)C(=O)O)c3ccccc3[n+](C)c12 (stereo not given)
inactive: TK-10 > 100 µM | SF-539 83.8 µM | Hs-578T > 100 µM | A498 > 100 µM | Malme-3M 86.7 µM | DU-145 70.1 µM | 786-0 71 µM | A549 78.5 µM | SF-268 29 µM | OVCAR-4 > 100 µM | OVCAR-5 > 100 µM | SK-MEL-5 40.1 µM | BT-549 > 100 µM | SK-OV-3 > 100 µM | SR > 100 µM | SK-MEL-2 > 100 µM | NCI-H23 > 100 µM | MOLT-4 47.8 µM

CN(C)CCOc1ccc(I)cc1Cc1ccccc1
inactive: TK-10 12.7 µM | SF-539 13.8 µM | HL-60 4.74 µM | Hs-578T 11.1 µM | A498 13.9 µM | Malme-3M 15.9 µM | DU-145 17.1 µM | 786-0 10.7 µM | A549 15.5 µM | SF-268 13.2 µM | OVCAR-4 11.8 µM | OVCAR-5 14.7 µM | SK-MEL-5 3.61 µM | BT-549 14 µM | SK-OV-3 18.6 µM | SR 2.65 µM | SK-MEL-2 15 µM | NCI-H23 4.05 µM | MOLT-4 5.21 µM

COc1ccc(OC)c2sc(N3C(=O)/C(=C/c4ccc(Cl)cc4)N=C3c3ccccc3)nc12
inactive: TK-10 72.6 µM | SF-539 > 100 µM | HL-60 40.6 µM | Hs-578T > 100 µM | A498 > 100 µM | Malme-3M > 100 µM | DU-145 > 100 µM | 786-0 73.3 µM | A549 > 100 µM | SF-268 98.9 µM | CAKI-1 > 100 µM | OVCAR-5 > 100 µM | SK-MEL-5 65 µM | BT-549 > 100 µM | SK-OV-3 > 100 µM | SR 43.4 µM | SK-MEL-2 > 100 µM | NCI-H23 > 100 µM | MOLT-4 24.7 µM

CC[C@@H](/C=C\CCC1(C[C@H](O)CCC=C(C)C)OCCO1)O[Si](C(C)C)(C(C)C)C(C)C
inactive: TK-10 20.6 µM | SF-539 18.5 µM | HL-60 16.7 µM | Hs-578T 37.3 µM | A498 32.8 µM | DU-145 30 µM | 786-0 17.5 µM | A549 33.2 µM | SF-268 21.6 µM | OVCAR-4 50.8 µM | CAKI-1 28.6 µM | OVCAR-5 22 µM | SK-MEL-5 17.8 µM | BT-549 30.5 µM | SK-OV-3 21.8 µM | SR 21.2 µM | SK-MEL-2 16.3 µM | NCI-H23 26.9 µM | MOLT-4 19.3 µM

Cc1c(-c2ccccc2)[nH]c2cn[nH]c(=O)c12
inactive: TK-10 > 100 µM | SF-539 > 100 µM | HL-60 10.7 µM | Hs-578T 74.6 µM | A498 > 100 µM | Malme-3M > 100 µM | DU-145 > 100 µM | 786-0 > 100 µM | A549 > 100 µM | SF-268 > 100 µM | CAKI-1 > 100 µM | OVCAR-5 > 100 µM | SK-MEL-5 67.9 µM | BT-549 75 µM | SK-OV-3 42.5 µM | SR 88.7 µM | SK-MEL-2 90.8 µM | NCI-H23 > 100 µM | MOLT-4 83.2 µM
